This is an account of results in US9969775B2, “CGRP antagonist peptides” (Ferring B.V., priority 2015, dated 2018).

Assay [1] has as its target T1, hCGRP receptor (CALCRL:RAMP1) (Homo sapiens, UniProt O60894+Q16602).
T1 construct: host or cells: GeneBLAzer CALCRL:RAMP1-CRE-bla Freestyle 293F
The assay is described as follows: CGRP receptor antagonist activity measured by cAMP assay (HTRF). It is filed as cell-based. To be noted: for IC50: GeneBLAzer CALCRL:RAMP1-CRE-bla Freestyle 293F cells, 30 minutes; for Emax: read-out: hCGRP-R Efficacy Antag (%) Ave.

Assay [2] addresses T2, hAM2 receptor (CALCRL:RAMP3) (Homo sapiens, UniProt O60896+Q16602).
T2 construct: expressed in transfected cells; host or cells: GeneBLAzer CALCRL:RAMP3-CRE-bla Freestyle 293F
The assay is described as follows: AM2 receptor antagonist activity measured by cAMP assay (HTRF). It counts as cell-based. To be noted: for IC50: GeneBLAzer CALCRL:RAMP3-CRE-bla Freestyle 293F cells; for Emax: read-out: hAM2-R Efficacy Antag (%) Ave; for selectivity ratio CGRP/AM2: selectivity ratio for hCGRP over hAM2, calculated from the IC50 values.
Description: Antagonist activity for the adrenomedullin receptor AM2 was determined using the method described in Example 6 above, with the following modifications. Instead of GeneBLAzer® CALCRL:RAMP1-CRE-bla Freestyle™ 293F cells, GeneBLAzer® CALCRL:RAMP3-CRE-bla Freestyle™ 293F cells were used to test activity at hAM2 receptors. The agonist was human adrenomedullin, instead of α-CGRP.
In Table 5, the selectivity ratio for hCGRP over hAM2 is calculated as hCGRP-R IC50/hAM2-R IC50.

Where [3] appears, read: % MPE: percent of the maximal possible effect, agonist human α-CGRP.
Setting [4] is: agonist human α-CGRP, read-out: hCGRP-R IC50 Ave.
The mark [5] stands for this setting: % MPE: percent of the maximal possible effect, agonist human adrenomedullin.
The mark [6] stands for this setting: agonist human adrenomedullin, read-out: hAM2-R IC50 Ave.

Like-named read-outs stand apart in the source and are kept apart here. Numbered stars: 1 amine (or outer) side, 2 acyl side, 3 side chain; on linkers, the order of the positions; unused ones are H or OH. Bridge positions count the residues as written; N and C are the ends. Square brackets hold non-standard residues; d marks the D form. Peptide text beside a SMILES is read from it. * marks the point of attachment. Phe(3-CH2NH2) = O=C([C@H](Cc1cccc(CN[*:3])c1)N[*:1])[*:2]; Phe(2-CONH2) = NC(=O)c1ccccc1C[C@H](N)C(=O)O; Triazol3yl(1,2,4-5-NH2) = Nc1nc(*)n[nH]1; Imidazole4carbonyl = O=C(c1cnc[nH]1)*; Lys(iPr) = CC(C)NCCCC[C@H](N)C(=O)O; Lys(Me2) = CN(C)CCCC[C@H](N)C(=O)O; Orn(iPr) = CC(C)NCCC[C@H](N)C(=O)O; Orn(Me2) = CN(C)CCC[C@H](N)C(=O)O; Oxazole2carbonyl = O=C(c1ncco1)*; 3Pal = N[C@@H](Cc1cccnc1)C(=O)O; ΔPro = O=C(O)[C@@H]1C=CCN1; Orn = NCCC[C@H](N)C(=O)O; X2 = Cc1n[nH]c(C(=O)*)n1; Dab = NCC[C@H](N)C(=O)O; X1 = O=C(c1ncccc1F)*; X6 = O=C(c1ccncn1)*

T2 sequence (Q16602 23-461): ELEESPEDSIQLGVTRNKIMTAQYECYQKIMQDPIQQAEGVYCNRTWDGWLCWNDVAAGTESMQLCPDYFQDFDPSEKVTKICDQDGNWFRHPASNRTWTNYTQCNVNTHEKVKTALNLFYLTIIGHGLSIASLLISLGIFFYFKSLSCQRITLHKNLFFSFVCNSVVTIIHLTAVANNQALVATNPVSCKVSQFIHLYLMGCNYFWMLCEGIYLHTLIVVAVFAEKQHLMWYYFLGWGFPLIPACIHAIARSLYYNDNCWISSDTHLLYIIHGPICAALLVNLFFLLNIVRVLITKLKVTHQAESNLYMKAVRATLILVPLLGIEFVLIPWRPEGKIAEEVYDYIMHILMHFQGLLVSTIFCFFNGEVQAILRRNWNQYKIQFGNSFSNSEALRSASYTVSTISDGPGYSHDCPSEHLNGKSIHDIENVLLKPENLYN
T2 sequence (O60896 24-148): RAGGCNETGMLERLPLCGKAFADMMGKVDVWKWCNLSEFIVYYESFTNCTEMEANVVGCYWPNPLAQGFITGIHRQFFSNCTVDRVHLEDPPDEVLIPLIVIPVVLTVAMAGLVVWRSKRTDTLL
T1 sequence (Q16602 23-461): as the sequence (Q16602 23-461) above
T1 sequence (O60894 27-148): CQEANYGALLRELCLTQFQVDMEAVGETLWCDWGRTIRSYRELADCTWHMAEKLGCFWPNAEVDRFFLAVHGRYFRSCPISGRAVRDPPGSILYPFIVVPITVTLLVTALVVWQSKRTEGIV

As for `CC(C)NCCC[C@@H]1NC(=O)[C@@H](NC(=O)[C@H](Cc2ccccc2C(N)=O)NC(=O)[C@H](NC(=O)c2ncco2)C(C)C)CSSC[C@@H](C(=O)N[C@@H](Cc2cccnc2)C(N)=O)NC(=O)[C@H](Cc2cccnc2)NC(=O)[C@@H]2CCCN2C(=O)CNC(=O)[C@H](C(C)C)NC(=O)[C@H](CC(=O)O)NC1=O` [Compound 40, Oxazole-2-carbonyl-D-Val-Phe(2-Cbm)-c(Cys-Orn(iPr)-Asp-Val-Gly-Pro-3Pal-Cys)-3Pal-NH2] (Oxazole2carbonyl-[dV][Phe(2-CONH2)]C[Orn(iPr)]DVGP[3Pal]C[3Pal]-NH2; disulfide 3-10), the half-maximal inhibitory concentration (IC50) was 0.09 nM in assay [1] (hCGRP-R IC50 Ave, agonist human α-CGRP) and 980 nM in assay [2] (hAM2-R IC50 Ave, agonist human adrenomedullin). In addition, the Emax in assay [1] is 100%; in assay [2], 98%. For the same compound, the “selectivity ratio CGRP/AM2” value in assay [2] is 10884.
For the compound `CC(C)NCCCC[C@@H]1NC(=O)[C@@H](NC(=O)[C@H](Cc2ccccc2C(N)=O)NC(=O)[C@H](NC(=O)c2ncco2)C(C)C)CSSC[C@@H](C(=O)N[C@@H](Cc2cccnc2)C(N)=O)NC(=O)[C@H](Cc2cccnc2)NC(=O)[C@@H]2CCCN2C(=O)CNC(=O)[C@H](C(C)C)NC(=O)[C@H](CC(=O)O)NC1=O` [Compound 41, Oxazole-2-carbonyl-D-Val-Phe(2-Cbm)-c(Cys-Lys(iPr)-Asp-Val-Gly-Pro-3Pal-Cys)-3Pal-NH2] (Oxazole2carbonyl-[dV][Phe(2-CONH2)]C[Lys(iPr)]DVGP[3Pal]C[3Pal]-NH2; disulfide 3-10), the Emax in assay [1] (setting [3]) was 100%; in assay [2] (setting [5]), 97%. The IC50 is 0.13 nM in assay [1] (setting [4]) and 1020 nM in assay [2] (setting [6]). The “selectivity ratio CGRP/AM2” value in assay [2] is listed as 8075.
As to `CC(C)[C@@H]1NC(=O)[C@H](CC(=O)O)NC(=O)[C@H](CCNc2nc(N)n[nH]2)NC(=O)[C@@H](NC(=O)[C@H](Cc2ccccc2C(N)=O)NC(=O)[C@H](NC(=O)c2ncco2)C(C)C)CSSC[C@@H](C(=O)N[C@@H](Cc2cccnc2)C(N)=O)NC(=O)[C@H](Cc2cccnc2)NC(=O)[C@@H]2CCCN2C(=O)CNC1=O` [Compound 42, Oxazole-2-carbonyl-D-Val-Phe(2-Cbm)-c(Cys-Dab(Atz)-Asp-Val-Gly-Pro-3Pal-Cys)-3Pal-NH2] (Oxazole2carbonyl-[dV][Phe(2-CONH2)]C[Dab](Triazol3yl(1,2,4-5-NH2))DVGP[3Pal]C[3Pal]-NH2; disulfide 3-10), the results for the Emax in assay [1] (setting [3]) and in assay [2] (setting [5]) were 100% and 97%, respectively.
For `CC(C)NCCC[C@@H]1NC(=O)[C@@H](NC(=O)[C@H](Cc2ccccc2C(N)=O)NC(=O)[C@H](NC(=O)c2ncco2)C(C)C)CSSC[C@@H](C(=O)N[C@@H](Cc2cccnc2)C(N)=O)NC(=O)[C@H](Cc2cccc(CN)c2)NC(=O)[C@@H]2C=CCN2C(=O)CNC(=O)[C@H](C(C)C)NC(=O)[C@H](CC(=O)O)NC1=O` [Compound 43, Oxazole-2-carbonyl-D-Val-Phe(2-Cbm)-c(Cys-Orn(iPr)-Asp-Val-Gly-Dhp-Phe(3-CH2NH2)-Cys)-3Pal-NH2] (Oxazole2carbonyl-[dV][Phe(2-CONH2)]C[Orn(iPr)]DVG[ΔPro][Phe(3-CH2NH2)]C[3Pal]-NH2; disulfide 3-10), the results for the Emax in assay [1] (setting [3]) and in assay [2] (setting [5]) were 100% and 101%, respectively. In addition, the IC50 in assay [1] (setting [4]) is 0.04 nM; in assay [2] (setting [6]), 180 nM. Moreover, in assay [2], the “selectivity ratio CGRP/AM2” value is on record as 4693.
As to `CC(C)[C@@H]1NC(=O)[C@H](CC(=O)O)NC(=O)[C@H](CCCNC(=O)[C@@H](N)CCCCN(C)C)NC(=O)[C@@H](NC(=O)[C@H](Cc2ccc(O)cc2)NC(=O)[C@H](NC(=O)c2ncco2)C(C)C)CSSC[C@@H](C(=O)N[C@@H](Cc2cccnc2)C(N)=O)NC(=O)[C@H](Cc2ccccc2)NC(=O)[C@@H]2CCCN2C(=O)CNC1=O` [Compound 44, Oxazole-2-carbonyl-D-Val-Tyr-c(Cys-Orn(Lys(Me2))-Asp-Val-Gly-Pro-Phe-Cys)-3Pal-NH2] (Oxazole2carbonyl-[dV]YC[Orn](Lys(Me2))DVGPFC[3Pal]-NH2; disulfide 3-10), the Emax in assay [1] (setting [3]) and in assay [2] (setting [5]) was 100% each time. The values for the half-inhibitory concentration (IC50) in assay [1] (setting [4]) and in assay [2] (setting [6]) were 0.17 nM and 114 nM, respectively. Moreover, in assay [2], the “selectivity ratio CGRP/AM2” value was 668.
Take `CC(C)[C@@H]1NC(=O)[C@H](CC(=O)O)NC(=O)[C@H](CCCNC(=O)[C@@H](N)CCCCN(C)C)NC(=O)[C@@H](NC(=O)[C@H](Cc2ccc(O)cc2)NC(=O)[C@H](NC(=O)c2ccncn2)C(C)C)CSSC[C@@H](C(=O)N[C@@H](Cc2cccnc2)C(N)=O)NC(=O)[C@H](Cc2ccccc2)NC(=O)[C@@H]2CCCN2C(=O)CNC1=O` [Compound 45, Pyrimidine-4-carbonyl-D-Val-Tyr-c(Cys-Orn(Lys(Me2))-Asp-Val-Gly-Pro-Phe-Cys)-3Pal-NH2] (X6-[dV]YC[Orn](Lys(Me2))DVGPFC[3Pal]-NH2; disulfide 3-10): the Emax was 100% in assay [1] (setting [3]) and 98% in assay [2] (setting [5]). Besides, the IC50 in assay [1] (setting [4]) is 0.18 nM; in assay [2] (setting [6]), 198 nM. For the same compound, in assay [2], the “selectivity ratio CGRP/AM2” value is 1082.
For `CC(C)[C@@H]1NC(=O)[C@H](CC(=O)O)NC(=O)[C@H](CCCN(C)C)NC(=O)[C@@H](NC(=O)[C@H](Cc2ccc(O)cc2)NC(=O)[C@H](NC(=O)c2ncccc2F)C(C)C)CSSC[C@@H](C(=O)N[C@@H](Cc2cccnc2)C(N)=O)NC(=O)[C@H](Cc2ccccc2)NC(=O)[C@@H]2CCCN2C(=O)CNC1=O` [Compound 46, Picolinoyl(3-F)-D-Val-Tyr-c(Cys-Orn(Me2)-Asp-Val-Gly-Pro-Phe-Cys)-3Pal-NH2] (X1-[dV]YC[Orn(Me2)]DVGPFC[3Pal]-NH2; disulfide 3-10) the same measures were 100%, 99%, 0.15 nM, 184 nM and 1189.
In the case of `CC(C)[C@@H]1NC(=O)[C@H](CC(=O)O)NC(=O)[C@H](CCCNC(=N)N)NC(=O)[C@@H](NC(=O)[C@H](Cc2ccc(O)cc2)NC(=O)[C@H](NC(=O)c2c[nH]cn2)C(C)C)CSSC[C@@H](C(=O)N[C@@H](Cc2cccnc2)C(N)=O)NC(=O)[C@H](Cc2ccccc2)NC(=O)[C@@H]2CCCN2C(=O)CNC1=O` [Compound 47] (Imidazole4carbonyl-[dV]YCRDVGPFC[3Pal]-NH2; disulfide 3-10), the Emax was 100% in assay [1] (setting [3]) and 99% in assay [2] (setting [5]). For the same compound, the “selectivity ratio CGRP/AM2” value in assay [2] is on record as 1460.
For `CC(C)[C@@H]1NC(=O)[C@H](CC(=O)O)NC(=O)[C@H](CCCNC(=N)N)NC(=O)[C@@H](NC(=O)[C@H](Cc2ccc(O)cc2)NC(=O)[C@H](NC(=O)c2cnc[nH]2)C(C)C)CSSC[C@@H](C(=O)N[C@@H](Cc2cccnc2)C(N)=O)NC(=O)[C@H](Cc2ccccc2)NC(=O)[C@@H]2CCCN2C(=O)CNC1=O` [Compound 47] (Imidazole4carbonyl-[dV]YCRDVGPFC[3Pal]-NH2; disulfide 3-10), the IC50 in assay [1] (setting [4]) is 0.16 nM; in assay [2] (setting [6]), 232 nM.
`Cc1n[nH]c(C(=O)N[C@@H](C(=O)N[C@@H](Cc2ccc(O)cc2)C(=O)N[C@H]2CSSC[C@@H](C(=O)N[C@@H](Cc3cccnc3)C(N)=O)NC(=O)[C@H](Cc3ccccc3)NC(=O)[C@@H]3CCCN3C(=O)CNC(=O)[C@H](C(C)C)NC(=O)[C@H](CC(=O)O)NC(=O)[C@H](CCCNC(=N)N)NC2=O)C(C)C)n1` [Compound 48] (X2-[dV]YCRDVGPFC[3Pal]-NH2; disulfide 3-10): the Emax in assay [1] (setting [3]) was 100%; in assay [2] (setting [5]), 96%. Also, the IC50 in assay [1] (setting [4]) is 0.07 nM; in assay [2] (setting [6]), 402 nM. Further, the “selectivity ratio CGRP/AM2” value in assay [2] is on record as 5610.
